# According to US10442804B2, “Compounds for the treatment of hepatitis B virus infection” (Gilead Sciences, Inc., priority 2017, dated 2019):
# Where two headings read alike, the source gives them in different places.
# Legend:
# [1] = tested on: HBV-infected NTCP-HepG2 cells, secreted HBsAg; experiment: microbe, parasite or virus in culture; assay type: cell-based, hepatitis B virus (genotype D, AD38-derived); conditions: Hepatitis B virus, 120 h, secreted HBsAg in supernatant after 5 days; geometric mean of minimum four determinations; read-out: NTCP HBsAg EC50
# Description: NTCP-HepG2 Antiviral Assay for Secreted HBsAg
# HepG2 cells stably expressing sodium-taurocholate cotransporting polypeptide (NTCP-HepG2) were grown in Dulbecco's Modified Eagle Medium (DMEM) without sodium pyruvate (Thermo Fisher Scientific, Waltham, Mass.) supplemented with 10% fetal bovine serum, 2 mM L-glutamine, 1% penicillin/streptomycin, and 0.25 mg/mL G-418. NTCP-HepG2 cells were infected with 4000 genome equivalent per cell of genotype D (AD38-derived) HBV in DMEM without sodium pyruvate (Thermo Fisher Scientific, Waltham, Mass.) supplemented with 2% fetal bovine serum, 2 mM L-glutamine, 1% penicillin/streptomycin, 2.5% DMSO, and 4% PEG 8000 (Promega, Madison, Wis.). After 24-hour incubation, cells were washed three times with OptiMEM (Thermo Fisher Scientific, Waltham, Mass.) and fed with fresh DMEM without sodium pyruvate (Thermo Fisher Scientific, Waltham, Mass.) supplemented with 2% fetal bovine serum, 2 mM L-glutamine, 1% penicillin/streptomycin, and 2.5% DMSO. At 4 days after infection, infected NTCP-HepG2 cells were seeded on 384-well plates pre-coated with collagen at a density of 20000 cells per well containing serially diluted compounds of the present disclosure or DMSO (0.5%) in a final volume of 80 μl of DMEM without sodium pyruvate (Thermo Fisher Scientific, Waltham, Mass.) supplemented with 2% fetal bovine serum, 2 mM L-glutamine, 1% penicillin/streptomycin, and 1% DMSO. After an incubation time of 5 days, cell culture supernatant was collected and measured for HBsAg.
# Secreted HBsAg in the supernatant were measured using a multiplex chemiluminescent MSD assay (Meso Scale Discovery, Rockville, Md.) using capture and detection antibody pairs specific for HBsAg. The EC50 values were calculated from the fit of the dose-response curves to a four-parameter equation. All EC50 values represent geometric mean values of a minimum of four determinations.
# [2] = MT-4 cytotoxicity assay; assay type: cell-based, human; conditions: human
# Description: Biological Example 2: MT-4 Cytotoxicity Assay
# The MT-4 cell line (HTLV-1 transformed, human T lymphoblastoid cells) was obtained from the NIH AIDS Reagent program (Bethesda, Md.). MT-4 cells were maintained in RPMI-1640 media (Thermo Fisher Scientific, Waltham, Mass.) supplemented with 10% fetal bovine serum, 100 Units/mL penicillin, and 100 μg/mL streptomycin. For the MT-4 cytotoxicity assay, 0.4 μL of serially diluted solutions of certain compounds disclosed herein were added to 40 μL of cell maintenance media in 384-well black, solid bottom plate using a Biomek FX workstation (Beckman Coulter, Brea, Calif.). Two thousand cells in 35 μL were added to each well using a Biotek uFlow Workstation (Biotek, Winooski, Vt.). Each assay plate contained 10 μM puromycin (final concentration) and 0.5% DMSO in RPMI-1640 media as positive and negative controls, respectively. Assay plates were incubated for five days at 37° C. in an incubator set at 5% CO2 and 90% humidity. After five days, 22 μL of Cell Titer Glo reagent (Promega, Madison, Wis.) was added to the assay plates with a Biotek uFlow Workstation. Plates were subsequently placed on an Envision Plate Reader (Perkin Elmer, Waltham, Mass.) for five minutes before the luminescence signal was read. CC50 values were defined as the compound concentration that caused a 50% decrease in luminescence signal, and were calculated by non-linear regression using Pipeline Pilot software by applying a four parameter fit equation (Accelrys, San Diego, Calif.) and are reported in the following Table 1.
# [3] = five days, Cell Titer Glo luminescence, read-out: MT-4 CC50
Compound,EC50 [1] [nM],"CC50 at 5 days [2, 3] [nM]",CC50 at 5 days ([2]; MT-4 CC50) [nM]
"CC1(C)CC[C@@H]2c3cc(C#CC(C)(C)S(C)(=O)=O)c(OC(F)F)cc3-c3cc(=O)c(C(=O)O)cn3N21 [Compound 112, (R)-11-(difluoromethoxy)-3,3-dimethyl-12-(3-methyl-3-(methylsulfonyl)but-1-yn-1-yl)-8-oxo-2,3,8,13b-tetrahydro-1H-pyrido[2,1-a]pyrrolo[1,2-c]phthalazine-7-carboxylic acid]",2.7,> 10000,
"COc1cc2c(cc1OCC1COC1)[C@H]1CCC(C)(C)N1n1cc(C(=O)O)c(=O)cc1-2 [Example 16, (R)-11-methoxy-3,3-dimethyl-12-(oxetan-3-ylmethoxy)-8-oxo-2,3,8,13b-tetrahydro-1H-pyrido[2,1-a]pyrrolo[1,2-c]phthalazine-7-carboxylic acid]",7.8,> 10000,
"CC1(C)CC[C@@H]2c3cc(C#Cc4ccc(N)nc4)c(OC(F)F)cc3-c3cc(=O)c(C(=O)O)cn3N21 [Compound 106, (R)-12-((6-aminopyridin-3-yl)ethynyl)-11-(difluoromethoxy)-3,3-dimethyl-8-oxo-2,3,8,13b-tetrahydro-1H-pyrido[2,1-a]pyrrolo[1,2-c]phthalazine-7-carboxylic acid]",0.37,7500,
"COCCCOc1cc2c(cc1OC(C)(C)C)-c1cc(=O)c(C(=O)O)cn1N1[C@H]2CCC1(C)C [Example 26, (S)-11-(tert-butoxy)-12-(3-methoxypropoxy)-3,3-dimethyl-8-oxo-2,3,8,13b-tetrahydro-1H-pyrido[2,1-a]pyrrolo[1,2-c]phthalazine-7-carboxylic acid]",> 1000,> 10000,
"COCCCOc1cc2c(cc1OC)-c1cc(=O)c(C(=O)O)cn1N1[C@H]2CCCC1(C)C (single isomer, unassigned) [Example 53]",9.1,9700,
"CC1(C)CC[C@@H]2c3cc(-c4cnn(C(F)F)c4)c(Cl)cc3-c3cc(=O)c(C(=O)O)cn3N21 [Example 76, (R)-11-chloro-12-(1-(difluoromethyl)-1H-pyrazol-4-yl)-3,3-dimethyl-8-oxo-2,3,8,13b-tetrahydro-1H-pyrido[2,1-a]pyrrolo[1,2-c]phthalazine-7-carboxylic acid]",6.3,4400,
"COCCCOc1cc2c(cc1Cl)-c1cc(=O)c(C(=O)O)cn1N1CCC(C)(C)[C@@H]21 (single isomer, unassigned) [Example 48]",> 1000,2200,
"COCCCOc1cc2c(cc1S(C)(=O)=O)-c1cc(=O)c(C(=O)O)cn1N1[C@@H]2CCC1(C)C [Example 69, (R)-12-(3-methoxypropoxy)-3,3-dimethyl-11-(methylsulfonyl)-8-oxo-2,3,8,13b-tetrahydro-1H-pyrido[2,1-a]pyrrolo[1,2-c]phthalazine-7-carboxylic acid]",52,> 10000,
"COCCCOc1cc2c(cc1OC(F)F)-c1cc(=O)c(C(=O)O)cn1N1[C@@H]2CCC1(C)C (single isomer, unassigned) [Example 19]",1.2,> 10000,
"COCCCOc1cc2c(cc1Cl)-c1cc(=O)c(C(=O)O)cn1[C@@H]1[C@@H]2CCC1(C)C (single isomer, unassigned) [Example 36]",170,> 10000,
"COc1cc2c(cc1C#Cc1cnc3cccnn13)[C@H]1CCC(C)(C)N1n1cc(C(=O)O)c(=O)cc1-2 [Example 68, (R)-12-(imidazo[1,2-b]pyridazin-3-ylethynyl)-11-methoxy-3,3-dimethyl-8-oxo-2,3,8,13b-tetrahydro-1H-pyrido[2,1-a]pyrrolo[1,2-c]phthalazine-7-carboxylic acid]",2.9,> 10000,
"CCOCCCOc1cc2c(cc1OC)-c1cc(=O)c(C(=O)O)cn1N1[C@@H]2CCC1(C)C [Example 62, (R)-12-(3-ethoxypropoxy)-11-methoxy-3,3-dimethyl-8-oxo-2,3,8,13b-tetrahydro-1H-pyrido[2,1-a]pyrrolo[1,2-c]phthalazine-7-carboxylic acid]",0.67,> 10000,
"COCCCOc1cc2c(cc1OCCCOC)[C@@H]1CCC(C)(C)N1n1cc(C(=O)O)c(=O)cc1-2 [Example 24, (S)-11,12-bis(3-methoxypropoxy)-3,3-dimethyl-8-oxo-2,3,8,13b-tetrahydro-1H-pyrido[2,1-a]pyrrolo[1,2-c]phthalazine-7-carboxylic acid]",> 1000,> 10000,
"COc1cc2c(cc1-c1cnn(C(F)F)c1)[C@H]1CCC(C)(C)N1n1cc(C(=O)O)c(=O)cc1-2 [Example 44, (R)-12-(1-(Difluoromethyl)-1H-pyrazol-4-yl)-11-methoxy-3,3-dimethyl-8-oxo-2,3,8,13b-tetrahydro-1H-pyrido[2,1-a]pyrrolo[1,2-c]phthalazine-7-carboxylic acid]",5.5,3000,
"CC(C)(O)C#Cc1cc2c(cc1C1CC1)-c1cc(=O)c(C(=O)O)cn1N1[C@@H]2CCC1(C)C [Example 71, (R)-11-cyclopropyl-12-(3-hydroxy-3-methylbut-1-yn-1-yl)-3,3-dimethyl-8-oxo-2,3,8,13b-tetrahydro-1H-pyrido[2,1-a]pyrrolo[1,2-c]phthalazine-7-carboxylic acid]",2.5,> 10000,
"COCCCOc1cc2c(cc1Cl)-c1cc(=O)c(C(=O)O)cn1N1[C@@H]2CCC12CC2 (single isomer, unassigned) [Example 56]",1.5,,> 10000
"COCc1cc2c(cc1OCC13CC(C#N)(C1)C3)[C@H]1CCC(C)(C)N1n1cc(C(=O)O)c(=O)cc1-2 [Example 74, (R)-12-((3-cyanobicyclo[1.1.1]pentan-1-yl)methoxy)-11-(methoxymethyl)-3,3-dimethyl-8-oxo-2,3,8,13b-tetrahydro-1H-pyrido[2,1-a]pyrrolo[1,2-c]phthalazine-7-carboxylic acid]",3.8,> 10000,
"COCCCOc1cc2c(cc1Cl)-c1cc(=O)c(C(=O)O)cn1N1[C@@H]2COCC1(C)C (single isomer, unassigned) [Example 51]",2.9,> 10000,
"COCCCOc1cc2c(cc1OC(C)(C)C)-c1cc(=O)c(C(=O)O)cn1N1[C@@H]2CCC1(C)C [Example 25, (R)-11-(tert-butoxy)-12-(3-methoxypropoxy)-3,3-dimethyl-8-oxo-2,3,8,13b-tetrahydro-1H-pyrido[2,1-a]pyrrolo[1,2-c]phthalazine-7-carboxylic acid]",160,> 10000,
"COCCCOc1cc2c(cc1Cl)-c1cc(=O)c(C(=O)O)cn1N1[C@H]2CCC1(C)C (single isomer, unassigned) [Example 6]",300,> 10000,
"COCCCOc1cc2c(cc1Cl)-c1cc(=O)c(C(=O)O)cn1[C@H]1[C@H]2CCC1(C)C (single isomer, unassigned) [Example 35]",49,> 10000,
"COCCCOc1cc2c(cc1Cl)-c1cc(=O)c(C(=O)O)cn1N1CCC[C@@H]21 (single isomer, unassigned) [Example 3]",> 1000,9100,
"COCCCOc1cc2c(cc1Cl)-c1cc(=O)c(C(=O)O)cn1N1C2CCC1(C)C (stereo not shown) [Example 4, 11-chloro-12-(3-methoxypropoxy)-3,3-dimethyl-8-oxo-2,3,8,13b-tetrahydro-1H-pyrido[2,1-a]pyrrolo[1,2-c]phthalazine-7-carboxylic acid]",3.9,> 10000,
